According to patent US7915257B2, “Use of triazinetrione sulfones for combating coccidiosis” (Bayer Animal Health GmbH, priority 2000, dated 2011):
Like-named read-outs stand apart in the source and are kept apart here.

Legend:
[1] = Acute oral toxicity (LD50 rat, oral); format: in vivo; details: for NOEL: LD50 rat, oral investigation; for LD50 rat, oral: printed in column Dosage (NOEL)
Procedure: (§1) The following toxicity data were determined in accordance with OECD/GLP guidelines, in particular OECD 414, 401 and 408. The investigations of the teratogenicity of the compounds was carried out in accordance with the US guidelines—“Teratogenicity study”, Guidelines for Registering Pesticides in the U.S.A., U.S. Environmental Protection Agency, Hazard Evaluation: Human and 10 Domestic Animals. U.S. Federal Register, Vol. 43, paragraph 163.83-3, adopted November 1982.

[2] = system: Eimeria spp. (principal species E. ovinoidalis and E. crandallis); experiment: Field trial, treatment of natural coccidiosis infections of grazing lambs; format: in vivo, Sheep; details: 5% w/v suspension as drench on day 7; toltrazuril 20 mg/kg, ponazuril 10 and 20 mg/kg; low infection pressure
Procedure: B. Field Trial of the Efficacy of Ponazuril Compared with Toltrazuril for the Treatment of Natural Infections of Grazing Lambs with Coccidiosis:
The aim of the trials was to compare toltrazuril and ponazuril for efficacy on natural infections with pathogens of the Eimeria family.
The active ingredients were compared in three consecutive experiments: • Experiment 1: untreated control—toltrazuril 20 mg/kg—ponazuril 20 mg/kg • Experiment 2: untreated control—ponazuril 20 mg/kg • Experiment 3: untreated control—toltrazuril 20 mg/kg—ponazuril 10 mg/kg.
The oocyst excretion and the consistency of the faeces were used as main parameters. The weight of the stock was likewise checked occasionally.

[3] = system: Eimeria tenella, E. maxima and E. acervulina; experiment: Efficacy of ponazuril on artificially induced mixed infection of chickens, cage housing; format: in vivo
Procedure: Groups each of 44 birds (4 replicates per treatment of 11 birds in each case) were formed and, on day 14, infected with sporulated oocysts. Ponazuril was administered each day on day 10-24 or 17-24. Three dosages in the feed were used in both treatment periods: 5 ppm, 10 ppm and 20 ppm. The result of the treatment was determined by various clinical and parasitological parameters, including the mortality caused by the coccidiosis and the oocyst excretion in the faeces.

[4] = in vivo
Procedure: as §1

Isospora suis [5] = details: experimentally infected piglets; cited from earlier work
Isospora suis [6] = details: coccidiosis (Isospora suis) in pigs; cited from earlier work

SMILES | NOEL [1] | LD50 rat, oral [1] | efficacy (oocyst excretion, consistency of the faeces) [2] | NOEL ([4]; dog) | NOEL ([4]; rabbit) | NOEL ([4]; rat) | NOEL ([4]; rat, 90 days) | prevention of disease (Isospora suis [5]) | also measured
Cc1cc(-n2c(=O)[nH]c(=O)n(C)c2=O)ccc1Oc1ccc(S(=O)(=O)C(F)(F)F)cc1 [ponazuril] | 5000 mg/kg of body weight | >5000 mg/kg of body weight | completely effective | 8.3 mg/kg of body weight | 30 mg/kg of body weight | 90 mg/kg of body weight | 11.2 mg/kg of body weight | – | control of the infection ([3]; 5, 10 and 20 ppm in the feed, daily on day 10-24 or 17-24, infection day 14): possible to control the infection with all dosages and treatment schedules; parasitological findings (oocyst excretion and number of lesions) ([3]; early start of the treatment): reduced the parasitological findings significantly; technical parameters (body weight gain and feed conversion) ([3]; early start of the treatment): improved the technical parameters; dosage with best results ([3]; highest dosage, 20 mg of ponazuril in the feed (approx. 3.5 mg/kg of body weight and day)): best results
CC[C@@]1([C@@H]2O[C@@H]([C@H]3O[C@@](O)(CO)[C@H](C)C[C@@H]3C)C[C@@H]2C)CC[C@H]([C@]2(C)CC[C@]3(C[C@H](O)[C@@H](C)[C@@H]([C@@H](C)[C@@H](OC)[C@H](C)C(=O)O)O3)O2)O1 [monensin] | – | – | – | – | – | – | – | not possible to prevent disease | –
O=C1OCCN1/N=C/c1ccc([N+](=O)[O-])o1 [furazolidone] | – | – | – | – | – | – | – | not possible to prevent disease | –
Cc1cc(-n2c(=O)[nH]c(=O)n(C)c2=O)ccc1Oc1ccc(SC(F)(F)F)cc1 [toltrazuril] | <1000 mg/kg of body weight | 1600-5000 mg/kg mg/kg of body weight | completely effective | 1.5 mg/kg of body weight | 2.0 mg/kg of body weight | 1.0 mg/kg of body weight | 1.1 mg/kg of body weight | – | suitability for treating coccidiosis (Isospora suis [6]): suitable for treating coccidiosis
CCCc1ncc(C[n+]2ccccc2C)c(N)n1 [amprolium] | – | – | – | – | – | – | – | not possible to prevent disease | –
